# Laboratory results reported in patent publication US20210379077A1, “TOPOISOMERASE II CATALYTIC INHIBITOR COMPOUND THERAPEUTICS FOR CANCER TREATMENT, METHODS AND USES” (The University of British Columbia, priority 2018, published 2021).
# “Also recorded” adds a separate entry of the source.
# Key:
# human TOP2a = target: T1, human TOP2a (Homo sapiens, UniProt P11388); experiment: K-DNA decatenation assay; format: biochemical; settings: 0-50 μM, 37° C., 1 hour
# T1 construct: purchased TopoGENE (TopoGEN) TG1001 (assay kit)
# Protocol: (§1) DNA samples were separated by electrophoresis on 0.8% agarose gels and visualized by ethium bromide staining. The positions of K-DNA and decatenated (D) DNA products are marked by arrows. Experiments were repeated five times and the densitometry of the D bands were used to establish an inhibition curve to calculate IC50. (b) Supercoiled pHOT™ plasmid was incubated with human TOP2a in the presence of 50 μM Etopside, 50 uM ICRF193 or 0-50 μM of compound #60 (Top60) compound at 37° C. for 1 hour. DNA products were separated by electrophoresis on 1% agarose gels and visualized by ethium bromide staining. The positions of supercoiled (SC), nicked (N), and relaxed (R) DNA bands are marked by arrows. Experiments were repeated five times and the densitometiy of the SC bands were used to establish an inhibition curve to calculate IC50. (c) Supercoiled pHOT™ plasmid was incubated with Topoisomerase I prior to addition of either mAMSA or compound #60 (Top60) at concentrations of 0, 5, 10, 25 and 50 μM at 37° C. for 30 minutes. Reactions were stopped by 1% SDS at 37° C. for 15 minutes. DNA products were separated by electrophoresis on a 1% agarose gels and visualized by ethium bromide staining. […]
# Hela cells [1] = experiment: Confocal microscopy of nuclei size; format: cell-based; settings: 20 μM, 48 hours, DAPI staining
# Protocol: BrdU incorporation rates were determined by Millipore™ BrdU incorporation kit (CAT #2750). (b-c) Hela cells were treated with vehicle or 20 μM of Top60 for 48 hours. Cells were then stained with APC-BrdU and 7-AAD for 4 hours, and subjected to FACS assays to determine cell populations at Sub G0/G1, G0/G1, S, and G2/M phases. Results were collected from three independent experiments, (d-e) Hela cells were treated with either vehicle or 20 μM T60 for 48 hours. Cells were fixed and co-stained with DAPI and phalloidin, and examined by confocal microscopy. Fifty cells were chosen from five high power fields to analyze nuclei sizes by the Image J software. Representative bright field microscopic images were also shown. Scale bar=50 μm.
# Confocal microscopy—Cells were fixed with 4% paraformaldehyde, treated in 0.25% Triton X-100 for 15 mins, incubated with F-actin conjugated to Phalloidin-iFluor 488™ (Abeam™; Cambridge, UK), and mounted with DAPI staining mount (Vector Labs™; Burlingame, Calif., USA). Cells were then imaged by confocal microscopy at 63× magnification (Zeiss LSM 780™; Carl Zeiss AG™; Oberkochen, Germany).
# Hela cells [2] = experiment: LDH cytotoxicity assay; format: cell-based; settings: 0-20 μM, 48 hours, listed as Top60
# Protocol: (§2) Cytotoxicity was evaluated by measuring LDH levels from cell culture media; (b) K562 cells were treated with either vehicle or 10-20 μM of Top60, Etoposide and ICRF187 for 4 hours. Whole cell lyses were collected to measure γH2AX levels with vinculin as the loading control; (c) K562 cells were treated with 0, 1, 5, 10, 15 and 20 μM of Top60, 20 μM Etoposide or 20 uM ICRF187 for 48 hours. Cell proliferation rates were determined by MTS assays; and (d) K562 cells were treated with 20 μM of Top60, Etoposide or ICRF187 for 0, 24, 48 and 72 hours. Cell proliferation rates were measured by MTS assays. All results were collected from three independent experiments.
# Cytotoxicity assay—Cytotoxicity assays were performed using the commercial kit from Pierce (CAT #8078). Briefly, culture media was collected and used to measure lactate dehydrogenase (LDH) levels by a colorimetric method following manufacture's protocol.
# Topo IIα = Topo IIα (Homo sapiens, UniProt P11388); experiment: DNA relaxation assay with supercoiled pHOT plasmid; format: biochemical; set-up: purchased TopoGENE (TopoGEN) TG2000H; settings: 0-50 μM, 37° C., 1 hour
# Protocol: as §1
# K562 cells = experiment: γH2AX Western blot (DNA damage in cells); format: cell-based; settings: 10-20 μM, 4 hours, listed as Top60
# Protocol: as §2
# Top60 is a catalytic inhibitor of Topo II To verify that our lead Compound 60(Top60), the formation of ds DNA breaks was assayed both in and outside of cells. To assess whether Top60 causes double stranded DNA breaks outside cells, supercoiled plasmid was incubated with and without Top60 in the presence of Topo II (FIG. 1d). […] Furthermore, H2AXγ protein expression was assessed by Western blot to determine if the lead compound could cause DNA damage in cells, and compared to Etoposide as a control (FIG. 3b). […] To determine if Top60 was capable of intercalating DNA, it was incubated with relaxed plasmid at increasing concentrations and compared with m-AMSA, a known intercalator. […]
# Sequence of Topo IIα (P11388 whole entry): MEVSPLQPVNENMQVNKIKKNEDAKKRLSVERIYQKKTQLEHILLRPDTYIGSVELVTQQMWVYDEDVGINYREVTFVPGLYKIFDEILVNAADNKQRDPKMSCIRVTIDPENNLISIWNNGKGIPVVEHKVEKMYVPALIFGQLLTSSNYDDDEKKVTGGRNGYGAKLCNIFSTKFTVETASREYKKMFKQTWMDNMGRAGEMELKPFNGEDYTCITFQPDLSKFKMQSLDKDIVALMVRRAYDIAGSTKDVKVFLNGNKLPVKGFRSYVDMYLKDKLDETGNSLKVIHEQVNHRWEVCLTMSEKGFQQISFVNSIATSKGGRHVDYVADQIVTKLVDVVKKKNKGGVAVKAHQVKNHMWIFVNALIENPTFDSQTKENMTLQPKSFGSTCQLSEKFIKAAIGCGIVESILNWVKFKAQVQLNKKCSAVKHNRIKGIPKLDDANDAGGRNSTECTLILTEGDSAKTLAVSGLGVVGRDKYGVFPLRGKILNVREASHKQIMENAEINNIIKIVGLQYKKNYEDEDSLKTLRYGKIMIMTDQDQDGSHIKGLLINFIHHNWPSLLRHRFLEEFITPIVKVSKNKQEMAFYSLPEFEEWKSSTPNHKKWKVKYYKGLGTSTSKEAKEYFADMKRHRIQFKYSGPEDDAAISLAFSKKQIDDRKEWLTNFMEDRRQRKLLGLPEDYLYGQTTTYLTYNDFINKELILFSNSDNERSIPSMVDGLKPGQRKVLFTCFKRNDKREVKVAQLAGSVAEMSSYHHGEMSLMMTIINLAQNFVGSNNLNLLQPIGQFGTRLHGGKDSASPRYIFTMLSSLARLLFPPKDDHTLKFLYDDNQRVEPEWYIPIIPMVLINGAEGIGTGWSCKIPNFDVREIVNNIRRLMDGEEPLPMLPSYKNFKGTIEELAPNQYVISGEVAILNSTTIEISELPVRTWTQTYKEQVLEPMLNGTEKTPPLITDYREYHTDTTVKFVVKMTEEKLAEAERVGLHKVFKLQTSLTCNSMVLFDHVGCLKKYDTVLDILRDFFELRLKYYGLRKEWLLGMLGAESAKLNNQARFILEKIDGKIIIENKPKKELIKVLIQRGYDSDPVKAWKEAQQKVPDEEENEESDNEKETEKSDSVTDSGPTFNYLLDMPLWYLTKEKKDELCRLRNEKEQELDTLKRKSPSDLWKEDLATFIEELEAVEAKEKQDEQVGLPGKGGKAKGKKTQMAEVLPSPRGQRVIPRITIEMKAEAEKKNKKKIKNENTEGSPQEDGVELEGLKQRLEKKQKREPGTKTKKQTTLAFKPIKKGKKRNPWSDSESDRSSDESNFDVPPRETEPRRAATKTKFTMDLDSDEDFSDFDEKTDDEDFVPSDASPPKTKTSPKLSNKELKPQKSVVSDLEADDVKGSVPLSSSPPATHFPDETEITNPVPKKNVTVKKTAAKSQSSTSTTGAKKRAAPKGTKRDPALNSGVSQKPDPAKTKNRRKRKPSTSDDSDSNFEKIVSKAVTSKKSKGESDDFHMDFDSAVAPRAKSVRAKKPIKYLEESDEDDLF
# T1 sequence (P11388 whole entry): as above
smiles,measurement,setting,value
O=C(Nc1ccc(Nc2ccccc2)cc1)c1ccc[nH]c1=S [Compound 60],IC50 in the decatenation assay,human TOP2a,nanomolar
same,nuclei size,Hela cells [1],enlarged nuclei
same,cytotoxicity (LDH levels in culture media),Hela cells [2],Low cytotoxic affect; also recorded: low cytotoxicity
same,IC50 in the relaxation assay,Topo IIα,nanomolar
same,DNA damage in cells by H2AXγ protein level,K562 cells,do not cause DNA damage
